The source made the active and inactive calls. The calls are words filed in the database; no cut-off is given here.
How the values were obtained:
RBL-2H3 [1] = assay: Inhibition of DNP-HAS-stimulated mast cell degranulation in rat RBL-2H3 cells assessed as reduction in beta-hexosaminidase release at 1 uM incubated for 3 hrs; type: functional, cell-based
RBL-2H3 [2] = assay: Inhibition of DNP-HAS-stimulated mast cell degranulation in rat RBL-2H3 cells assessed as reduction in beta-hexosaminidase release at 1 to 25 uM incubated for 3 hrs followed by DNP-HAS stimulation for 1 hr; type: functional, cell-based; details: dose 1-25 µM
RBL-2H3 [3] = assay: Inhibition of DNP-HAS-stimulated mast cell degranulation in rat RBL-2H3 cells assessed as reduction in beta-hexosaminidase release at 0.5 uM; type: functional, cell-based
RBL-2H3 [4] = assay: Inhibition of DNP-HAS-stimulated mast cell degranulation in rat RBL-2H3 cells assessed as induction of ASM activation at 0.5 uM in presence of 0.1 uM eriodictyol; type: functional, cell-based
RBL-2H3 [5] = assay: Inhibition of mast cell degranulation in rat RBL-2H3 cells assessed as induction of ASM activation at 1 to 25 uM incubated for 3 hrs measured by TLC analyses; type: functional, cell-based; details: dose 1-25 µM
RBL-2H3 [6] = assay: Inhibition of DNP-HAS-stimulated mast cell degranulation in rat RBL-2H3 cells assessed as reduction in beta-hexosaminidase release pre-treated with 5 uM sGC inhibitor NS2028 for 1 hr followed by compound treatment at 25 uM for 3 hrs; type: functional, cell-based
RBL-2H3 [7] = assay: Inhibition of mast cell degranulation in rat RBL-2H3 cells assessed as induction of ASM activation pre-treated with anti-67LR antibody for 3 hrs followed by compound treatment at 25 uM for 3 hrs; type: functional, cell-based
RBL-2H3 [8] = assay: Inhibition of DNP-HAS-stimulated mast cell degranulation in rat RBL-2H3 cells assessed as induction of ASM activation at 0.5 uM; type: functional, cell-based
RBL-2H3 [9] = assay: Inhibition of mast cell degranulation in rat RBL-2H3 cells assessed as reduction in beta-hexosaminidase release pre-treated with 5 uM ASM-specific inhibitor desipramine for 3 hrs followed by compound treatment at 25 uM for 3 hrs; type: functional, cell-based
RBL-2H3 [10] = assay: Inhibition of DNP-HAS-stimulated mast cell degranulation in rat RBL-2H3 cells assessed as reduction in beta-hexosaminidase release at 0.5 uM in presence of 0.1 uM eriodictyol; type: functional, cell-based
RBL-2H3 [11] = assay: Inhibition of DNP-HAS-stimulated mast cell degranulation in rat RBL-2H3 cells assessed as reduction in beta-hexosaminidase release at 0.1 uM; type: functional, cell-based
RBL-2H3 [12] = assay: Inhibition of DNP-HAS-stimulated mast cell degranulation in rat RBL-2H3 cells assessed as reduction in beta-hexosaminidase release at 0.01 to 1 uM; type: functional, cell-based; details: dose 0.01-1 µM
RBL-2H3 [13] = assay: Inhibition of DNP-HAS-stimulated mast cell degranulation in rat RBL-2H3 cells assessed as induction of ASM activation at 0.1 uM; type: functional, cell-based
Mus musculus = assay: Inhibition of IgE/Ag-mediated immediate hypersensitivity reaction in BALB/c mouse assessed as change in the level of skin extravasation at 0 to 4 mg/kg, po administered 1 hr prior to Ag challenge; type: functional, organism-based; details: dose 0-4 mg/kg

Question: How did the inhibition (RBL-2H3 [1]) turn out when `Nc1nc(-c2nn(Cc3ccccc3F)c3ncccc23)ncc1C1CC1` was run?
Answer: Its inhibition is “Active”.

Question: Which inhibition (RBL-2H3 [2]) does the source give for `COc1cc(C(=O)O[C@@H]2Cc3c(O)cc(O)cc3O[C@@H]2c2cc(O)c(O)c(O)c2)cc(O)c1O` here?
Answer: The inhibition was “Active”.

Question: And the inhibition (RBL-2H3 [3])?
Answer: Its inhibition is “inactive”.

Question: And the inhibition (RBL-2H3 [4])?
Answer: The inhibition was “Active”.

Question: And the inhibition (RBL-2H3 [5])?
Answer: Its inhibition is “Active”.

Question: What about the inhibition (RBL-2H3 [6]) of the same compound?
Answer: Its inhibition is “inactive”.

Question: And the inhibition (RBL-2H3 [7])?
Answer: The inhibition was “inactive”.

Question: And the inhibition (RBL-2H3 [8])?
Answer: Its inhibition is “inactive”.

Question: And the inhibition (RBL-2H3 [9])?
Answer: The inhibition was “inactive”.

Question: And the inhibition (RBL-2H3 [10])?
Answer: The inhibition was “Active”.

Question: Which inhibition (RBL-2H3 [11]) does the source give for `O=C1C[C@@H](c2ccc(O)c(O)c2)Oc2cc(O)cc(O)c21` here?
Answer: The inhibition was “inactive”.

Question: And the inhibition (RBL-2H3 [12])?
Answer: The inhibition was “inactive”.

Question: And the inhibition (RBL-2H3 [13])?
Answer: Its inhibition is “inactive”.

Question: With `O=C1C[C@@H](c2ccc(O)c(O)c2)Oc2cc(O[C@@H]3O[C@H](CO)[C@@H](O)[C@H](O)[C@H]3O)cc(O)c21` as the compound, how does the inhibition (Mus musculus) read?
Answer: Its inhibition is “inactive”.

Source: ChEMBL document CHEMBL5033999, “Eriodictyol-Amplified 67-kDa Laminin Receptor Signaling Potentiates the Antiallergic Effect of O-Methylated Catechin” (J Nat Prod, 2021)
